This note sets out measurements from patent US20240124444A1 (Celgene Corporation, priority 2020, published 2024).

Where two headings read alike, the source gives them in different places.

This assay concerns C. parvum strain UGA1. Description: C. parvum growth inhibition assay (Nluc luminescence in HCT-8 cells). It counts as cell-based, Cryptosporidium parvum. The note with it: for inhibition at 1 µM / inhibition at 10 µM: HCT-8; for inhibition at 1 µM: read-out: % inh @ 1 uM C. parvum; for inhibition at 10 µM: read-out: % inh @ 10 uM C. parvum; for EC50: C. parvum growth inhibition in HCT-8 cells, 48 hours, 6 concentrations 10-0.04 μM.

Setting [1] is: Cryptosporidium parvum, single point inhibition at 1 uM.
[2] abbreviates: Cryptosporidium parvum, single point inhibition at 10 uM.
Setting [3] is: Cryptosporidium parvum, HCT-8, 48 h.
Where [4] appears, read: Cryptosporidium parvum, single point inhibition @ 1 uM.
Setting [5] is: Cryptosporidium parvum, single point inhibition @ 10 uM.

Consider `Cn1cc(C(=O)Nc2cc3[nH]c(-c4cnn(C)c4)cc3cn2)cn1` [Example 331, 1-methyl-N-(2-(1-methyl-1H-pyrazol-4-yl)-1H-pyrrolo[3,2-c]pyridin-6-yl)-1H-pyrazole-4-carboxamide], for which the inhibition at 1 µM under setting [1] was in the range of 0 to 33%. Moreover, the inhibition at 10 µM under setting [2] is 0 to 33%.

For the compound `Cc1nn(C)cc1C(=O)Nc1cc2[nH]c(-c3ccncc3)cc2cn1` [Example 278, 1,3-dimethyl-N-(2-(pyridin-4-yl)-1H-pyrrolo[3,2-c]pyridin-6-yl)-1H-pyrazole-4-carboxamide], the inhibition at 1 µM under setting [1] lay in the range of 0 to 33%. For the same compound, the inhibition at 10 µM under setting [2] is 0 to 33%.

A word on the EC50: it is the concentration at which the effect is half-maximal. Low readings indicate a more potent agent, high ones a less potent agent. For `O=C(Nc1cc2[nH]c(-c3ccncc3)cc2cn1)C1CCOCC1` [Example 68, N-(2-(pyridin-4-yl)-1H-pyrrolo[3,2-c]pyridin-6-yl)tetrahydro-2H-pyran-4-carboxamide], the concentration giving a half-maximal response (EC50) under setting [3] is more than 1 µM. Also, the inhibition at 1 µM under setting [4] lay in the range of 0 to 33%. Also, the inhibition at 10 µM under setting [5] lay in the range of 67 to 100%.

Consider `Cc1cc(-c2cc3cnc(NC(=N)C4CC4)cc3[nH]2)ccn1` [Example 96, N-(2-(2-methylpyridin-4-yl)-1H-pyrrolo[3,2-c]pyridin-6-yl)cyclopropanecarboximidamide], for which the half-maximal effective concentration (EC50) under setting [3] was more than 1 µM.

For the compound `Cc1cc(-c2cc3cnc(N)cc3n2C)ncn1` [Example 125, 1-methyl-2-(6-methylpyrimidin-4-y)-1H-pyrrolo[3,2-c]pyridin-6-amine], the EC50 under setting [3] is more than 1 µM.

Take `Cn1cc(C(=O)Nc2cc3[nH]c(-c4ccnc(OCC(F)(F)F)n4)cc3cn2)cn1` [Example 308, 1-methyl-N-(2-(2-(2,2,2-trifluoroethoxy)pyrimidin-4-yl)-1H-pyrrolo[3,2-c]pyridin-6-yl)-1H-pyrazole-4-carboxamide]: the inhibition at 1 µM under setting [1] was in the range of 0 to 33%. Also, under setting [2], the inhibition at 10 µM is 0 to 33%.

Regarding `Cc1cc(-c2cc3cnc(N[C@@H]4CCOC4)cc3[nH]2)ccn1` [Example 13, (R)-2-(2-Methylpyridin-4-yl)-N-(tetrahydrofuran-3-yl)-1H-pyrrolo[3,2-c]pyridin-6-amine], the EC50 was 0.5 to 1 µM. Besides, the inhibition at 1 µM under setting [4] is 33 to 66%. In addition, the inhibition at 10 µM under setting [5] is 67 to 100%.

Under setting [3], `Cn1c(-c2cc(NCC(F)(F)F)ncn2)cc2cnc(NC3CCOCC3)cc21` [Example 365] displayed an EC50 of more than 1 µM.

Consider `Cc1cc(-c2[nH]c3cc(NC4CCOC4)ncc3c2C)ccn1` (stereo in doubt) [Example 367, (S)-3-methyl-2-(2-methylpyridin-4-yl)-N-(tetrahydrofuran-3-yl)-1H-pyrrolo[3,2-c]pyridin-6-amine], for which, under setting [3], the EC50 was more than 1 µM.

Regarding `CC(Oc1nccc(-c2cc3cnc(NC(=O)c4cnn(C)c4)cc3[nH]2)n1)C(F)F` (stereo not drawn) [Example 141, N-(2-(2-(1,1-difluoropropan-2-yloxy)pyrimidin-4-yl)-1H-pyrrolo[3,2-c]pyridin-6-yl)-1-methyl-1H-pyrazole-4-carboxamide], the inhibition at 1 µM under setting [4] lay within 0 to 33%. Besides, the inhibition at 10 µM under setting [5] fell in the range of 67 to 100%.

Under setting [3], `Cn1cc(-c2cc3cnc(NC4CCOCC4)cc3[nH]2)cn1` [Example 354, 2-(1-methyl-1H-pyrazol-4-yl)-N-(tetrahydro-2H-pyran-4-yl)-1H-pyrrolo[3,2-c]pyridin-6-amine] came in with a concentration for a half-maximal effect (EC50) of more than 1 µM.

`CN1CCC(C(=O)Nc2cc3[nH]c(C(F)(F)F)cc3cn2)CC1` [Example 109, 1-methyl-N-(2-(trifluoromethyl)-1H-pyrrolo[3,2-c]pyridin-6-yl)piperidine-4-carboxamide] returned an EC50 under setting [3] of more than 1 µM.

Regarding `Cc1cc(Nc2cc3[nH]c(-c4ccncc4)cc3cn2)nn1C(C)C` [Example 168, N-(1-isopropyl-5-methyl-1H-pyrazol-3-yl)-2-(pyridin-4-yl)-1H-pyrrolo[3,2-c]pyridin-6-amine], under setting [4], the inhibition at 1 µM was 33 to 66%. The inhibition at 10 µM under setting [5] fell in the range of 67 to 100%.

Regarding `Cc1cc(-c2cc3cnc(NC(=O)C(C)O)cc3[nH]2)ccn1` (stereo in doubt) [Example 307, (S)-2-hydroxy-N-(2-(2-methylpyridin-4-yl)-1H-pyrrolo[3,2-c]pyridin-6-yl)propanamide], the inhibition at 1 µM under setting [1] fell in the range of 0 to 33%. Besides, the inhibition at 10 µM under setting [2] lay within 0 to 33%.

Regarding `CC(=O)Nc1cc2c(cn1)cc(-c1cc(C)ncn1)n2C` [Example 119, N-(1-methyl-2-(6-methylpyrimidin-4-yl)-1H-pyrrolo[3,2-c]pyridin-6-yl)acetamide], the EC50 under setting [3] is more than 1 µM.

In the case of `O=C(Nc1cc2[nH]c(-c3ccncc3)cc2cn1)[C@@H]1CCOC1` [Example 135, (R)-N-(2-(pyridin-4-yl)-1H-pyrrolo[3,2-c]pyridin-6-yl)tetrahydrofuran-3-carboxamide], the inhibition at 1 µM under setting [4] lay within 0 to 33%. Moreover, the inhibition at 10 µM under setting [5] fell in the range of 67 to 100%.

`Cn1c(-c2ccccn2)cc2cnc(NC(=O)C3CC3)cc21` [Example 129, N-(1-methyl-2-(pyridin-2-yl)-1H-pyrrolo[3,2-c]pyridin-6-yl)cyclopropanecarboxamide]: under setting [3], the EC50 was more than 1 µM.

`Cc1cc(-c2cc3cnc(NC(=O)C(C)C)cc3n2C)ncn1` [Example 118, N-(1-methyl-2-(6-methylpyrimidin-4-yl)-1H-pyrrolo[3,2-c]pyridin-6-yl)isobutyramide] yielded an EC50 under setting [3] of more than 1 µM.

Turning to `FC(F)(F)CCc1nccc(-c2cc3cnc(NC4CCOCC4)cc3[nH]2)n1` [Example 385, N-(tetrahydro-2H-pyran-4-yl)-2-(2-(3,3,3-trifluoropropyl)pyrimidin-4-yl)-1H-pyrrolo[3,2-c]pyridin-6-amine], the EC50 under setting [3] was more than 1 µM.

On to `O=C(Nc1cc2[nH]c(-c3ccncc3)cc2cn1)c1cnn(C2CCOCC2)c1` [Example 154, N-(2-(pyridin-4-yl)-1H-pyrrolo[3,2-c]pyridin-6-yl)-1-(tetrahydro-2H-pyran-4-yl)-1H-pyrazole-4-carboxamide], for which the inhibition at 1 µM under setting [4] lay within 0 to 33%. For the same compound, the inhibition at 10 µM under setting [5] lay within 67 to 100%.

As for `CC(Oc1nccc(-c2cc3cnc(NC(=O)c4cnn(C)c4)cc3[nH]2)n1)C(F)(F)F` (stereo in doubt) [Example 314, (R)-1-methyl-N-(2-(2-(1,1,1-trifluoropropan-2-yloxy)pyrimidin-4-yl)-1H-pyrrolo[3,2-c]pyridin-6-yl)-1H-pyrazole-4-carboxamide], under setting [1], the inhibition at 1 µM is 0 to 33%. Besides, the inhibition at 10 µM under setting [2] is 0 to 33%.

`CC(C)n1cc(C(=O)Nc2cc3[nH]c(-c4ccnc(OCC(F)F)n4)cc3cn2)cn1` [Example 173, N-(2-(2-(2,2-difluoroethoxy)pyrimidin-4-yl)-1H-pyrrolo[3,2-c]pyridin-6-yl)-1-isopropyl-1H-pyrazole-4-carboxamide]: the inhibition at 1 µM under setting [4] was in the range of 0 to 33%. The inhibition at 10 µM under setting [5] lay in the range of 67 to 100%.

As for `Cn1cc(-c2cc3cnc(NC(=O)C4CC4)cc3[nH]2)cn1` [Example 210, N-(2-(1-methyl-1H-pyrazol-4-yl)-1H-pyrrolo[3,2-c]pyridin-6-yl)cyclopropanecarboxamide], under setting [1], the inhibition at 1 µM fell in the range of 0 to 33%. Under setting [2], the inhibition at 10 µM was in the range of 67 to 100%.

The compound `Cc1cc(-c2cc3cnc(NC4CCN(C)CC4)cc3[nH]2)ccn1` [Example 112, N-(1-methylpiperidin-4-yl)-2-(2-methylpyridin-4-yl)-1H-pyrrolo[3,2-c]pyridin-6-amine] registered an EC50 under setting [3] of more than 1 µM.

As for `N#Cc1cc2cnc(Nc3cc(-c4nc[nH]n4)cc(C4CCOCC4)c3)cc2[nH]1` [Example 208, 6-(3-(tetrahydro-2H-pyran-4-yl)-5-(1H-1,2,4-triazol-3-yl)phenylamino)-1H-pyrrolo[3,2-c]pyridine-2-carbonitrile], the inhibition at 1 µM under setting [1] lay in the range of 0 to 33%. Under setting [2], the inhibition at 10 µM is 67 to 100%.

As to `Cn1cc(C(=O)Nc2cc3[nH]c(-c4ccnc(OC5CC(O)C5)n4)cc3cn2)cn1` (stereo not drawn) [Example 324, N-(2-(2-(3-hydroxycyclobutoxy)pyrimidin-4-yl)-1H-pyrrolo[3,2-c]pyridin-6-yl)-1-methyl-1H-pyrazole-4-carboxamide], the inhibition at 1 µM under setting [1] was 0 to 33%. Moreover, the inhibition at 10 µM under setting [2] lay in the range of 0 to 33%.

For `Cn1c(-c2ccnc(NCC(F)(F)F)n2)cc2cnc(NC(=O)c3cnn(C4CCOC4)c3)cc21` (stereo in doubt) [Example 142, (R)-N-(1-methyl-2-(2-(2,2,2-trifluoroethylamino)pyrimidin-4-yl)-1H-pyrrolo[3,2-c]pyridin-6-yl)-1-(tetrahydrofuran-3-yl)-1H-pyrazole-4-carboxamide], the inhibition at 1 µM under setting [4] was in the range of 67 to 100%. The inhibition at 10 µM under setting [5] was in the range of 67 to 100%.

On to `Cn1cc(C(=O)Nc2cc3[nH]c(-c4ccnc(O[C@H]5CC[C@@H](O)CC5)n4)cc3cn2)cn1` [Example 325, N-(2-(2-((1s,4s)-4-hydroxycyclohexyloxy)pyrimidin-4-yl)-1H-pyrrolo[3,2-c]pyridin-6-yl)-1-methyl-1H-pyrazole-4-carboxamide], for which the “% inh @ 1 uM C. parvum” value (single point inhibition at 1 uM) was “D (single point inhibition values of 0-33% (activity level D))”. Further, where the note is “single point inhibition at 10 uM”, the “% inh @ 10 uM C. parvum” value is given as “D (single point inhibition values of 0-33% (activity level D))”.

Compound `Cc1cc(-c2cc3cnc(NS(=O)(=O)C4CC4)cc3[nH]2)ccn1` [Example 97, N-(2-(2-methylpyridin-4-yl)-1H-pyrrolo[3,2-c]pyridin-6-yl)cyclopropanesulfonamide] had an EC50 under setting [3] of more than 1 µM.

With `C[C@H]1C[C@@H]1C(=O)Nc1cc2[nH]c(-c3ccnc(C(F)(F)F)n3)cc2cn1` (stereo in doubt) [Example 262, (1S,2S)-2-methyl-N-(2-(2-(trifluoromethyl)pyrimidin-4-yl)-1H-pyrrolo[3,2-c]pyridin-6-yl)cyclopropanecarboxamide], the inhibition at 1 µM under setting [1] was 0 to 33%. Besides, the inhibition at 10 µM under setting [2] lay within 0 to 33%.

Regarding `c1cc(-c2cc3cnc(NC4CCOCC4)cc3[nH]2)ccn1` [Example 353, 2-(pyridin-4-yl)-N-(tetrahydro-2H-pyran-4-yl)-1H-pyrrolo[3,2-c]pyridin-6-amine], under setting [3], the EC50 is less than 0.5 µM.
